{"source": "patent US6989435B2", "about": "“Compounds and methods to inhibit or augment an inflammatory response” (Cambridge University Technical Services Ltd., priority 1997, dated 2006)", "key": {"[1]": {"tested_on": "chemokine-induced migration of peripheral blood monocytes", "assay": "Chemokine-induced migration of freshly prepared peripheral blood monocytes, each of the four chemokines", "assay_type": "cell-based, human", "details": "100 μM; peripheral blood monocytes from 3 donors", "procedure": "Agents may also be screened in a chemotactic assay which employs human neutrophils, eosinophils, mast cells, basophils, platelets, lymphocytes or monocytes. For monocytes, 9 mls of fresh blood are transferred to a tube containing 1 ml of 3.8% sodium citrate, and left at room temperature for 15 minutes. Five mls of this anti-coagulated blood are carefully layered over 3.5 ml Polymorphprep® (Nycomed Pharma, Oslo), and centrifuged at 500 g for 35 minutes per the manufacturer's instructions. The top band at the sample/medium interface contains monocytes. The monocytes are carefully removed with a glass pipette, and reconstituted to the original volume (5 ml). The cells are washed with PBS plus 10% fetal calf serum, and centrifuged at 400 g for 10 minutes. The washing step is repeated three times before the cells are counted. Cells are resuspended at 1×10^7 cells/ml in RPMI-1640+10% fetal calf serum (FCS). The monocytes are cultured for two days at 37° C. in a humidified atmosphere of 5% CO2.\nOn day 2, the cells are counted, spun down, and reconstituted to 1×10^7 cells/ml in Gey's balanced salt solution+1 mg/ml bovine serum albumin (BSA). […]"}, "[2]": {"tested_on": "chemokine-induced THP-1 migration (MCP-1, MIP1α, IL8, SDF1α)", "assay": "Trans-well THP-1 migration assay, across the chemokines tested", "assay_type": "cell-based, human", "procedure": "To determine whether an agent inhibits a chemokine-induced activity, such as macrophage recruitment, varying amounts of the agent are mixed with cells in the presence of a known chemoattractant. […] Chemokine (such as MCP-1, MIP1α, IL8 or SDF-1α), at a concentration known to cause significant migration of THP-1 cells in the trans-well migration assay, is placed in the lower compartment (FIG. 1). […] After incubation, the cells are gently removed from the top of the filter with a pipette, 20 μl of 20 mM EDTA in simple PBS is added into each top well, and incubated for 20 minutes at 4° C. The filter is carefully flushed with media using a gentle flow, and removed. […] The media is carefully aspirated from each well, and the converted dye is solubilized by 20 μl of DMSO. Absorbance of converted dye is measured at a wavelength of 595 nm using an ELISA plate reader. The number of migrated cells in each well is then determined by interpolation of the standard curve (see also Imai et al., J. Biol. Chem., 272, 15036 (1997)). […] The framed filter was aligned with the holes in the corner of the filter frame and placed over the wells. Five×10^4 THP-1 cells in 25 μl of RPMI-1640 culture media were added to the upper compartment. Peptides were dissolved in Milli Q water and then serially diluted in culture medium. In most cases, the serially diluted peptides were added to the upper compartment of the chemotaxis chamber. […] After incubation, the cells were gently removed from the top of the filter with a pipette, 20 μl of 20 mM EDTA in PBS was added into each top well, and the mixture was incubated for 20 minutes at 4° C. The filter was then carefully flushed with media using a gentle flow, and removed. […] The media was carefully aspirated from each well, and the converted dye was solubilized by 20 μl of DMSO. Absorbance of converted dye was measured at a wavelength of 595 nm using an ELISA plate reader. […] Representative chemokines included a beta-chemokine (“CC”), MIP-1α, and two alpha-chemokines (“CXC”), IL-8 and SDF-1α. […]"}}, "data": [{"sequence": "EICADPKQKWVQ [Peptide 3]", "values": [{"measurement": "inhibition of monocyte migration induced with each of the four chemokines", "setting": "[1]", "result": "> 95", "unit": "%"}, {"measurement": "inhibition of migration induced by any of the chemokines of either family", "setting": "[2]; 100 μM, THP-1", "result": "> 99", "unit": "%"}, {"measurement": "CC SPECIFICITY", "setting": "[2]; Table 7, average inhibitory ED50 versus SDF1 and IL8 divided by average inhibitory ED50 versus MCP-1 and MIP1α", "result": 1.5}]}]}
